Assay results as given in article PMC4946153 (Cardiovascular Diabetology, 2016).
Where two headings read alike, the source gives them in different places.

Columns and labels:
[1] = test system: adult rat ventricular cardiomyocytes (ARVM); test: Contractility of paced adult rat ventricular cardiomyocytes; format: cell-based; settings: 100 nM, 5 min pre-treatment, ARVM paced 1 Hz, 15 V, 0.5 ms, 37 °C; vs. control; n = 4
Experimental: Adult rat ventricular cardiomyocytes (ARVM) were isolated from wild-type Lewis rats (Lew/Crl) as previously described. […] Subsequently, ARVM were cultivated over-night in DMEM/F12 containing 33 µM biotin and 17 µM pantothenate (Invitrogen, Carlsbad, CA, USA). […] Furthermore, untreated ARVM or ARVM treated with 10 nM isoproterenol (Sigma-Aldrich, Munich, Germany) were immediately measured. ARVM were paced with bipolar pulses in a contractility and fluorescence system (IonOptix, Milton, MA, USA) at 15 V, 1 Hz, 0.5 ms, at 37 °C for up to 10 min and 10–14 contractions of at least 10 rod–shaped ARVM per condition were recorded. Sarcomeric shortening, shortening rate and re-lengthening rate were calculated using the IonWizard software (IonOptix, Milton, MA, USA). […] Afterwards, ARVM were treated as described above. […] Microscopic pictures were taken randomly with at least 10 pictures per condition. As a positive control 200 µM H2O2 was utilised. For each condition at least 400 cells were counted per experiment.

[2] = test system: Cor.4U human iPSC-derived cardiomyocytes; test: Beating-rate by impedance measurement in human Cor.4U cells; format: cell-based; settings: 500 nM; for time to maximum beating-rate / beating-rate, area under the curve for 6 h: n = 4; for beating-rate, area under the curve for 6 h: vs. basal
Experimental: (§1) The cardiac mouse cell line HL-1, a cell line derived from the AT-1 mouse atrial cardiomyocyte tumour lineage, was kindly provided by Dr. W.C. Claycomb (Louisiana State University, New Orleans, LA, USA). HL-1 cells were cultivated in Claycomb medium containing 10 % fetal calf serum (FCS), 100 µM norepinephrine and 4 mM L-glutamine (all from Sigma-Aldrich, Munich, Germany) on gelatine/fibronectin coated plates. H9c2 cells (ATCC CRL-1446), stably transfected with the human IR in our laboratory (H9c2-E2) were cultivated in DMEM, low glucose containing 10 % FCS, 1 % non–essential amino acids and 600 µg/ml G418 (all from Invitrogen, Carlsbad, CA, USA). Commercially available iPS-derived human cardiomyocytes (Cor.4U®) (Axiogenesis, Cologne, Germany) were cultured in Cor.4U® Complete Medium containing 10 % FCS on fibronectin–coated 96-well E-Plate (Acea Biosciences, San Diego, CA, USA). The medium was changed twice daily. All cells were incubated at 37 °C with 5 % CO2 in a humidified incubator.
Cor.4U® cardiomyocytes were seeded at a density of 30,000 cells per well. From day 3 on the cells were cultured in Iscove’s Basal Medium containing 1 % GlutaMAX supplement (both Life Technologies, Carlsbad, CA, USA) and 2 µg/ml Ciprobay (Bayer, Leverkusen, Germany). […] Impedance of each well was measured with the RTCA Cardio xCELLigence Analyser (Acea Biosciences, San Diego, CA, USA) during the whole experiment. Beating-rate and cell index were analysed by RTCA cardio software (Acea Biosciences, San Diego, CA, USA).

[3] = test system: H9c2-E2 cells (H9c2 overexpressing the human insulin receptor); test: Caspase 3/7 activity assay in H9c2-E2 cells; format: cell-based, rat; settings: for prevention of H2O2-induced caspase 3/7 activation (in words): 100 nM + 800 µM H2O2, 2 h
Experimental: as §1
Caspase 3/7 activity was then measured by the caspase-Glo® 3/7 assay system (Promega, Madison, Wisconsin, USA) as described in the manual. After 2 h incubation period caspase 3/7 activity was analysed by measuring the luminescence in an Infinite 200 plate reader (Tecan, Männedorf, Switzerland).

[4] = test system: insulin receptor (membrane embedded, M-IR; CHO-cells overexpressing the IR); test: Competition binding, membrane embedded IR (M-IR)
Experimental: Briefly, CHO-cells overexpressing the IR were collected and re-suspended in ice-cold 2.25 STM buffer (2.25 M sucrose, 5 mM Tris–HCl pH 7.4, 5 mM MgCl2, complete protease inhibitor) and disrupted using a Dounce homogenizer followed by sonication. The homogenate was overlaid with 0.8 STM buffer (0.8 M sucrose, 5 mM Tris–HCl pH 7.4, 5 mM MgCl2, complete protease inhibitor) and ultra-centrifuged for 90 min at 100,000g. Plasma membranes at the interface were collected and washed twice with phosphate buffered saline (PBS). The final pellet was re-suspended in dilution buffer (50 mM Tric-HCl pH 7.4, 5 mM MgCl2, complete protease inhibitor) and again homogenised with a Dounce homogenizer. Competition binding experiments were performed in a binding buffer (50 mM Tris–HCl, 150 mM NaCl, 0.1 % BSA, complete protease inhibitor, adjusted to pH 7.8) in 96-well microplates. In each well 2 µg isolated membrane were incubated with 0.25 mg wheat germ agglutinin polyvinyltoluene polyethylenimine scintillation proximity assay (SPA) beads. […] The radioactivity was measured at equilibrium in a microplate scintillation counter (Wallac Microbeta, Freiburg, Germany).
(§2) Results are expressed as mean values ± SEM of at least three independent experiments. For statistical analysis Graphpad Prism v5.00 (Graphpad Software, San Diego, CA, USA) was used. One-way ANOVA was performed to determine significance between conditions, with level of significance chosen at p < 0.05. In case of IC50 determinations for binding, a non-parametric Kruskal–Wallis testing was performed, again with level of significance chosen at p < 0.05.

[5] = molecular target: insulin receptor (solubilised, S-IR); test: Competition binding, solubilised IR (S-IR)
Experimental: Binding on a freshly solubilised IR preparation (S-IR) was performed as previously described with some modifications. Aliquots of membranes were incubated at 4 °C for 30 min in a solubilisation buffer (20 mM HEPES–NaOH, 100 mM NaCl, 10 mM MgSO4, 1 % (w/v) n-Dodecyl-ß-D-maltoside (Sigma-Aldrich, Munich, Germany), adjusted to pH 7.8 and Complete TM Protease Inhibitor cocktail). Thereafter, ultra-centrifugation was performed at 100,000g for 30 min and 4 °C to remove non–solubilised debris. Protein concentration in the supernatant was adjusted to 0.15 mg/ml with binding buffer (100 mM HEPES–NaOH, 100 mM NaCl, 10 mM MgSO4, 0.025 % (v/v) Tween-20, adjusted to pH 7.8 and complete TM protease inhibitor cocktail). To streptavidin SPA beads (5 mg in […] binding buffer), 50 µl of an anti-IR alpha-antibody 83-7 (Abcam, Cambridge, UK) was added. After incubation for 30 min, SPA beads were once washed and finally re-suspended in 500 µl binding buffer. A solution of solubilised receptor (1 ml, 0.15 mg/ml) was added and incubated for further 60 min, before washing and resuspension in 1.5 ml.
as §2

[6] = test system: Akt(Ser473) phosphorylation in HL-1 cells; test: Akt(Ser473) phosphorylation in HL-1 cells, Western blot; format: cell-based, mouse; settings: for Akt(Ser473) phosphorylation level: vs. Ins and other analogues
Experimental: as §1

[7] = test system: Akt(Thr308) phosphorylation in HL-1 cells; test: Akt(Thr308) phosphorylation in HL-1 cells, Western blot; format: cell-based, mouse; settings: n = 3
Experimental: as §1

HL-1 cells = test: 2-deoxy-D-glucose uptake in HL-1 cardiomyocytes; format: cell-based, mouse; settings: 200 nM, 60 min
Experimental: as §1
HL-1 cells were seeded at a density of 400,000 cells per well in a 12-well plate. […] Incorporated glucose was measured by scintillation counting of the cell lysates in a liquid scintillation counter (Beckman Coulter, Pasadena, CA, USA). Values were corrected for non-specific uptake as measured by incubation with L-[^14C]glucose (PerkinElmer, Waltham, MA, USA).

[8] = test system: cardiovascular outcome in patients; settings: DEVOTE interim analysis; ref [16], [17]; cited from earlier work
Text: (§3) So far, finalised clinical data is only available for IGla, whereas for IDeg the investigation is still ongoing.

[9] = test system: cardiovascular effects in patients; settings: ORIGIN trial, ref [15]; cited from earlier work
Text: as §3

[10] = 200 nM, 60 min, HL-1, normalised to tubulin, n = 4-5

In the case of insulin, the “increase in departure velocity (shortening rate)” value (from here on “increase in departure velocity”) [1] is reported as “~ twofold”, the “increase in return velocity (re-lengthening rate)” value (shortened to “increase in return velocity”) [1] is reported as “~ threefold” and the “increase in sarcomeric shortening” value [1] is reported as ~ 2.5 fold. For the same compound, the “time to maximum beating-rate” value [2] was 10 min, the “beating-rate, area under the curve for 6 h” value (“beating-rate, area” for short) [2] was “significant increase” and the “decrease of caspase 3/7 activity compared to H2O2 treatment alone” value ([3]; 100 nM insulin + 800 µM H2O2, 2 h, H9c2-E2, n = 5-6) was “up to 70.3%”.
With insulin degludec [IDeg] the “IR affinity (in words)” value [4] was “very low binding affinities”, the IC50 ([4]; 2 µg isolated membrane, WGA-PVT-PEI SPA beads, 100 pM [125I]-human Ins, pH 7.8, 12 h at 23 °C, mean ± SEM, at least four independent experiments in quadruplicates, read-out: IR affinity IC50) was 19.6 ± 1.1 nM and the “IR affinity (in words)” value ([4]; listed as Insulin degludec) was “significant lower IR affinity”. For the same compound, the “IC50 fold higher compared to Ins” value ([4]; ratio of IC50 vs. Ins) was 23.6 fold, the “binding affinity compared to Ins” value ([4]; relative to Ins) was ~ 4% and the IC50 ([5]; anti-IR antibody 83-7 SPA, 100 pM [125I]-insulin, pH 7.8, 12 h at 23 °C, mean ± SEM, at least six times on different days, quadruplicates, read-out: IR affinity IC50) was 3.12 ± 0.42 nM. For the same compound, the “IC50 fold higher compared to Ins” value ([5]; ratio of IC50 vs. Ins) was 5.4 fold, the “binding affinity relative to human insulin” value ([5]; this paper) was ~ 18.6% and the “Akt(Ser473) phosphorylation level” value ([6]; 200 nM, 5 min, HL-1, normalised to tubulin, n = 4-5) was “significantly lower”. The “Akt(Ser473) phosphorylation level” value ([6]; 200 nM, 10 min, HL-1, normalised to tubulin, n = 4-5) was “significantly lower”, the “Akt(Ser473) phosphorylation level compared to IGla” value [6, 10] was “still significantly lower” and the “Akt(Ser473) phosphorylation level compared to Ins and IGlaM1” value [6, 10] was “similar”. For the same compound, the “Akt(Ser473) phosphorylation” value ([6]; HL-1, 5- and 10-min incubation, compared to insulin, insulin glargine and M1) was “lower”, the “Akt(Thr308) phosphorylation, kinetic” value ([7]; 200 nM, 5, 10 and 60 min, HL-1, same kinetic as for Akt(Ser473)) was “The same kinetic was observed” and the “Akt(Thr308) phosphorylation” value ([7]; 200 nM, 5- and 10-min incubation, HL-1, compared to insulin, insulin glargine and M1) was “lower”. For the same compound, the “increase in departure velocity” value [1] was “~ twofold”, the “increase in return velocity” value [1] was “~ threefold” and the “increase in sarcomeric shortening” value [1] was ~ 2.5 fold. For the same compound, the “onset of action on beating-rate” value [2] was “slower onset of action”, the “time to maximum beating-rate” value [2] was 20 min and the “beating-rate, area” value [2] was “significant increase”. The “glucose uptake, comparison between insulins” value (HL-1 cells) was “no difference”, the “prevention of H2O2-induced caspase 3/7 activation (in words)” value ([3]; H9c2-E2) was “same potency to prevent caspase 3/7 activation as Ins” and the “major adverse cardiovascular outcome vs IGla” value [8] was “non-inferiority to IGla”.
In the case of `OO` [H2O2, reference compound], the “induction of caspase 3/7 activity” value ([3]; 800 µM H2O2, 2 h, H9c2-E2, vs. basal, n = 5-6) is reported as 4.8 fold and the “induction of caspase 3/7 activity (in words)” value ([3]; H2O2 challenge, H9c2-E2) is reported as “fivefold increase”.
In the case of insulin glargine [IGla], the “increase in departure velocity” value [1] is reported as “~ twofold”, the “increase in return velocity” value [1] is reported as “~ threefold” and the “increase in sarcomeric shortening” value [1] is reported as ~ 2.5 fold. The “time to maximum beating-rate” value [2] was 10 min, the “beating-rate, area” value [2] was “significant increase” and the “glucose uptake, comparison between insulins” value (HL-1 cells) was “no difference”. For the same compound, the “prevention of H2O2-induced caspase 3/7 activation (in words)” value ([3]; H9c2-E2) was “same potency to prevent caspase 3/7 activation as Ins” and the “cardiovascular effects vs standard care treatment” value [9] was “non-inferiority”.
